For experiment [1], the system named is octamer duplex d(GCGATCGC)2 (3) (DNA, duplex) GCGATCGC
As to the kind of experiment: 1H NMR titration (chemical shift). Conditions: 25 mM NaCl, 25 mM K3PO4, D2O buffer, pH 6.0, 10 °C, 0.29 mM compound.

For experiment [2] the test system is unchanged. The experiment is described as follows: DOSY NMR (PGSE diffusion coefficients). Conditions: 25 mM NaCl, 25 mM K3PO4, D2O buffer, pH 6.4, 10 °C, 0.29 mM compound.

Each structure is given as a SMILES string.

Take `CCc1c2c(nc3ccc(O)c(CN4CCC4)c13)-c1cc3c(c(=O)n1[C@@H]2CO)COC(=O)[C@]3(O)CC`: the Ka in experiment [1] worked out at 3.76 ± 1.19 mM⁻¹; in experiment [2] (0.87 mM octamer), 2.0 ± 0.3 mM⁻¹.
As to `CCc1c2c(nc3ccc(O)c(CN4CCC4)c13)-c1cc3c(c(=O)n1[C@H]2CO)COC(=O)[C@]3(O)CC`, the Ka in experiment [1] (5.89 ± 1.07 omitting H12 and H14) turned out to be 5.00 ± 2.02 mM⁻¹; in experiment [2] (0.92 mM octamer) it was 5.9 ± 0.3 mM⁻¹.

(Values after PMC8347432 (2021).)
